Assay results from patent US7199113B2, “Pharmaceutically active compounds and methods of use thereof” (priority 1998, dated 2007).

What was measured:
Format in all cases: biochemical
[1] = biological target: T1, TF/FVIIa complex (Homo sapiens, UniProt P08709+P13726, DEL276-295); assay: FVIIa activity assay (TF/VIIa catalytic activity toward S-2288); conditions: statement on Table 1 (FIG. 2(a))
T1 construct: proteolytic cleavage of the zymogen FVII to the active serine protease FVIIa; Truncated recombinant human tissue factor (e.g. composed of 243 amino acids) is expressed in E. coli; host or cells: E. coli (TF)
Protocol: Factor VIIa (FVIIa) activity, or the effect of TF and FVIIa interactions, can be determined in the presence of TF using FX and a small peptide (chromogenic) substrate or in the absence of TF using FX as substrate. Assays using FVIIa-specific chromogenic substrate S-2288 directly measures the effect of a compound on FVIIa catalytic activity. In this assay, 55 μl of TF/FVIIa complex (containing 10 nM TF and 10 nM VIIa) was first incubated with 5 μl of DMSO (or diluted DMSO) or compound, in a 96-well plate for 15 minutes at 37° C., then admixed with 20 μl of 8 mM S-2288. The reaction was incubated for 1–2 hours at 37° C. Absorbance at 405 nm was then measured after the reaction was quenched with 20 μl of 50% acetic acid. The percent inhibition of TF/VIIa activity was calculated from OD405 nm values in the absence and presence of a compound. […] Inhibition of TF/VIIa activity toward S-2288 by the two compounds would be expected if they were to bind to VIIa active site or prevent TF and VIIa from forming an active complex.

[2] = biological target: T2, FIXa (Homo sapiens, UniProt P00740); assay: FIXa-dependent FX activation assay; conditions: statement on Table 2 (FIG. 2(b))
T2 construct: FIX was first converted to FIXa by TF/VIIa in the absence of compound; purchased Enzyme Research Laboratories Inc
Protocol: FIX was first converted to FIXa by TF/VIIa in the absence of compound. This was done in a 50-ml tube. After incubating TF/VIIa (0.67 nM, 10 ml) at 37° C. for 15 minutes, FIX (300 nM, 0.123 ml) was added and incubated at 37° C. for 30 minutes. Then 1.54 ml of EDTA (400 mM) was added to stop the FIX activation. Then 65 μl of the above FIXa sample was transferred into wells of a 96-well plate that contain 5 μl of diluted DMSO (or buffer) or compound (in diluted DMSO or buffer). Ten μl of FX (1000 nM), 10 μl of polylysine (300 nM), and 10 μl of Spectrozyme FXa (5 mM) were added to each well and incubate at 37° C. until an OD405 nm value of ˜0.8 was reached. Absorbance at 405 nm was then measured following addition of 20 μl of 50% acetic acid. The percent inhibition of FIXa activity was calculated from OD405 nm values in the absence and presence of a compound.

[3] = system: human plasma (TF-initiated clotting); assay: Prothrombin time (PT) assay; conditions: lipidated recombinant tissue factor 1–3 nM, statement on FIG. 4
Protocol: Clot times are generally measured in seconds. Preferred PT assays are typically performed by adding a suitable amount (e.g. about 1 to 3 nM) of lipidated tissue factor to an assay solution that includes conventionally citrated plasma. The PT assay measures TF-mediated blood plasma clot time and is preferably performed by conducting the following steps: • 1) providing about 0.1 ml of citrated human plasma in a suitable assay solution, and combining same with between from about 0.5 μl to 10 μl of at least one compound to be tested (optionally dissolved in vehicle such as water or dimethylsulfoxide (DMSO)) and incubating same at room temperature for about 3 to 10 minutes, • 2) admixing into the solution from between about 0.2 ml (ca. 1–3 nM recombinant human tissue factor) and about 5–10 mM of calcium to initiate plasma clotting; and • 3) measuring the plasma clot time to determine the prothrombin clot time (PT).
The PT assay was performed at 37° C. with an Electra 800 (Medical Automation, Inc.). The PT reaction was initiated by adding 0.2 ml of lipidated recombinant human tissue factor into 0.105 ml of human plasma (Ci-Trol Control Level I, from VWR, Cat. No. 68100-336). […] Following mixing the compound (or DMSO) with plasma (Ci-Trol), 0.2 ml of lipidated reocombinant tissue factor (1–3 nM) is added to the plasma and clotting times were measured within 10 min.

[4] = biological target: T3, thrombin (Homo sapiens, UniProt P00734); assay: Thrombin activity assay; conditions: statement on Table 1 (FIG. 2(a))
T3 construct: followed by addition of 10 μl of thrombin (20 nM); purchased Enzyme Research Laboratories Inc
Protocol: For thrombin activity assay, 55 μl of buffer was mixed with 5 μl of DMSO or compound, followed by addition of 10 μl of thrombin (20 nM). Mix and incubate at 37° C. for 10 minutes. Then 10 μl of substrate S-2238 was added and allowed to incubate at 37° C. for 15–20 minutes. Absorbance at 405 nm was then measured and the percent inhibition of thrombin activity was calculated from OD405 nm values in the absence and presence of a compound.

[5] = biological target: T4, FXa (Homo sapiens, UniProt P00742); assay: FXa activity assay; conditions: statement on Table 1 (FIG. 2(a))
T4 construct: FX is converted to FXa by TF/VIIa complex in the absence of any compound; purchased Enzyme Research Laboratories Inc
Protocol: FX is converted to FXa by TF/VIIa complex in the absence of any compound. To do that, 54 μl of TF/VIIa (50 nM) was added to 27 ml of buffer in a 50-ml tube. Then 6 ml of FX (180 nM) was added and incubated at 37° C. for 15 minutes. Six ml of EDTA was added to stop FX activation. Five μl of compound or DMSO was placed in each well of a 96-well plate in duplicate, then 65 μl of FXa generated above was added to each well and mixed. After incubation for 15 minutes at 37° C., 10 μl of FXa substrate Spectrozyme FXa was added and incubated for 20 minutes at 37° C. Absorbance at 405 nm was then measured following addition of 20 μl of 50% acetic acid. The percent inhibition of FXa activity was calculated from OD405 nm values in the absence and presence of a compound.

T4 sequence (P00742 235-488 limits assumed): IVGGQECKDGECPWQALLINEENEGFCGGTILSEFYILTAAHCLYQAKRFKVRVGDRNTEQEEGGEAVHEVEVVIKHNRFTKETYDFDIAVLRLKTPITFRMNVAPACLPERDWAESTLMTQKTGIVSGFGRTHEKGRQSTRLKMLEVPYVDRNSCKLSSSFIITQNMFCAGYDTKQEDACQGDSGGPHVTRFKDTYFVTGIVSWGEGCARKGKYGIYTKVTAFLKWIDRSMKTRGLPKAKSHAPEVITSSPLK
T4 sequence (P00742 41-179 limits assumed): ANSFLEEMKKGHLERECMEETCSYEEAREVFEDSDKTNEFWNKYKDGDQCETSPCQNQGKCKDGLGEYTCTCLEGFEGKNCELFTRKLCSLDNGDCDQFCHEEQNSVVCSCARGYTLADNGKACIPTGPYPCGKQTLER
T2 sequence (P00740 227-461 limits assumed): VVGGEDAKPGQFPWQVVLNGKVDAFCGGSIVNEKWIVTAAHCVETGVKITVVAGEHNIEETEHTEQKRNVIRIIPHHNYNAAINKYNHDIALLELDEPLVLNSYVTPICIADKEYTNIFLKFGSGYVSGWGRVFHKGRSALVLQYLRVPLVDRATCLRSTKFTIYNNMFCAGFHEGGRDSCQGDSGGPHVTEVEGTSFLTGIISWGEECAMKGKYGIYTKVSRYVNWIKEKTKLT
T2 sequence (P00740 47-191 limits assumed): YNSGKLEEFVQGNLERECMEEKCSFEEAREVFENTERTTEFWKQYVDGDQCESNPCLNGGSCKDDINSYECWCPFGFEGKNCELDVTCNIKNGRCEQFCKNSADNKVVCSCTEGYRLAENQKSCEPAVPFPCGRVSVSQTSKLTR

| Compound | effect on TF/VIIa catalytic activity toward S-2288 [1] | inhibition of FIXa activity (FIXa-dependent FX activation) [2] | effect on TF-initiated PT times (clotting time) [3] | inhibition of thrombin activity [4] | inhibition of FXa activity [5] |
| --- | --- | --- | --- | --- | --- |
| O=P(O)(O)C(CNc1cccc(O)c1)P(=O)(O)O [Compound 1, 1-(bisphosponate)-2-amino(3-hydroxyphenyl)ethyl] | do not have significant effect | do not inhibit FIXa activity | prolonged TF-initiated PT times significantly | do not inhibit thrombin activity | do not inhibit FXa activity |
| O=P(O)(O)C(CNc1ccc(O)cc1)P(=O)(O)O [Compound 2] | do not have significant effect | do not inhibit FIXa activity | prolonged TF-initiated PT times significantly | do not inhibit thrombin activity | do not inhibit FXa activity |
